Measurements published in ChEMBL document CHEMBL1201862, “PubChem BioAssay data set” (2004).
Active and inactive are the calls of the source.

What was measured:
[1] = molecular target: T1, Sentrin-specific protease 6 (Homo sapiens, UniProt Q9GZR1); type: functional;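 also: Luminescence-based dose-response confirmatory assay of SENP6 inhibition, following up an ultra-high-throughput screen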
T1 sequence (Q9GZR1 whole entry): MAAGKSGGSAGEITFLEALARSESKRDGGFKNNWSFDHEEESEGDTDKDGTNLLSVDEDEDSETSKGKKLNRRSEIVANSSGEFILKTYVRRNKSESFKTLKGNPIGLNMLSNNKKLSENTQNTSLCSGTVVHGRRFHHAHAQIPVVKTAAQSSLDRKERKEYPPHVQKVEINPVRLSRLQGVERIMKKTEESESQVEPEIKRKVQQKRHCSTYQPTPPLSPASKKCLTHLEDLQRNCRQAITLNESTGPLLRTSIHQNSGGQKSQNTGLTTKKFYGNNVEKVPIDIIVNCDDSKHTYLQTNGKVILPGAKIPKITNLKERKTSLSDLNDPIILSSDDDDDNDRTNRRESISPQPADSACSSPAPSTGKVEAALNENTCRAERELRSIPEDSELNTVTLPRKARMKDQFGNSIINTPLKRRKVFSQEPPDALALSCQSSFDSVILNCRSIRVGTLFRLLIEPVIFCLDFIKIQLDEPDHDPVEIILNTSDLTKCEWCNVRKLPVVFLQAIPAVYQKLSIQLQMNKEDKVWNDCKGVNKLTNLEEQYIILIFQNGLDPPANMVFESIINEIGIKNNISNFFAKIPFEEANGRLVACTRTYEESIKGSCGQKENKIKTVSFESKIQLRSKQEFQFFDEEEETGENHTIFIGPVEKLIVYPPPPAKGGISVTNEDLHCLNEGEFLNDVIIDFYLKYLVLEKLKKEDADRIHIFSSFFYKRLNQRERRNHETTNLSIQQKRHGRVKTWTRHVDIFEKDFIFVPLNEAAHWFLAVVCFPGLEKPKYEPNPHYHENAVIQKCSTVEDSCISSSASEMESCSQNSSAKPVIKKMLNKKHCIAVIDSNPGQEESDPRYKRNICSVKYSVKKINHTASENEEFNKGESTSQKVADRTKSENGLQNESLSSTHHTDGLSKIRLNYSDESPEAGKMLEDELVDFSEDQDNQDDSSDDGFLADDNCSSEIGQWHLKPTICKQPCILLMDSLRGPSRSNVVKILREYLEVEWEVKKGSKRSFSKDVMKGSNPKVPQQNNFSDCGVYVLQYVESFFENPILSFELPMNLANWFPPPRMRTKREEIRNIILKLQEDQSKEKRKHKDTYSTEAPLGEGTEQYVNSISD

[2] = molecular target: T2, Histone-lysine N-methyltransferase NSD2 (Homo sapiens, UniProt O96028); type: biochemical
T2 sequence (O96028 whole entry): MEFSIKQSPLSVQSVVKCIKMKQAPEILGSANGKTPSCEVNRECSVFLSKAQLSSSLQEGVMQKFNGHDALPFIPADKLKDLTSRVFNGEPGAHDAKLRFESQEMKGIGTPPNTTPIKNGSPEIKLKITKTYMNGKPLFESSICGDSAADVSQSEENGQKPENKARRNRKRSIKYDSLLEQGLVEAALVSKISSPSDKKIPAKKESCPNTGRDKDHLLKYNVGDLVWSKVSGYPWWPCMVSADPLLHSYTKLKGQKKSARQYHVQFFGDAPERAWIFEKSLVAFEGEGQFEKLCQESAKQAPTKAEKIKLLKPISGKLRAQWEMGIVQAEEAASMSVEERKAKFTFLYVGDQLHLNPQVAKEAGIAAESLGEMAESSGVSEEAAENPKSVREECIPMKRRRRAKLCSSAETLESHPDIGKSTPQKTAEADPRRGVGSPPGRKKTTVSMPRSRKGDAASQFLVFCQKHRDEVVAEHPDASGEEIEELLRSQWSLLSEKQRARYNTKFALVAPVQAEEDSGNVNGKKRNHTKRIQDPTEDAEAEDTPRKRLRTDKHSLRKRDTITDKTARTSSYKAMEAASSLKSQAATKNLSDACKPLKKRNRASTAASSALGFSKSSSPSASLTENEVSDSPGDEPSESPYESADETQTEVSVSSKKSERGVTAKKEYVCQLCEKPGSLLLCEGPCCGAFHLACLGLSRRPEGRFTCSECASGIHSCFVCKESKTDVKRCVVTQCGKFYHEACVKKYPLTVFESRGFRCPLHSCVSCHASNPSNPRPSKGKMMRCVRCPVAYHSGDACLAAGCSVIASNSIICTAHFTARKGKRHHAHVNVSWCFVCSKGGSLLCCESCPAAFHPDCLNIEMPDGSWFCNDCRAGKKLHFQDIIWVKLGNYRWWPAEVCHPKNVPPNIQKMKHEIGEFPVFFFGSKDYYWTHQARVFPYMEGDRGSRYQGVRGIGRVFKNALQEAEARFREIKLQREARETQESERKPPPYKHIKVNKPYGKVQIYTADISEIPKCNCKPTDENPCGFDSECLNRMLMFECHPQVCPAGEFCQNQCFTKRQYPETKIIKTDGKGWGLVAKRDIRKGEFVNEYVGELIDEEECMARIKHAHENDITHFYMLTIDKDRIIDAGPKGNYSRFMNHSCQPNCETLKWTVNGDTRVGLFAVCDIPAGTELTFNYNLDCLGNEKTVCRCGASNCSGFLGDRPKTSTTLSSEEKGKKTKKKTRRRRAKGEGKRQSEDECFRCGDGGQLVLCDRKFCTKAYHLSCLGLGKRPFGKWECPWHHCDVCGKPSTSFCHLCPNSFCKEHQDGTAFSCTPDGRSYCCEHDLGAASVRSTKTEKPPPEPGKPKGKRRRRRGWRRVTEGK

[3] = molecular target: Aurora kinase A (Homo sapiens, UniProt O14965); type: functional;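 also: value from the Navigating the Kinome kinase panel profiling, panel entry STK6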
Aurora kinase A, sequence (O14965 whole entry): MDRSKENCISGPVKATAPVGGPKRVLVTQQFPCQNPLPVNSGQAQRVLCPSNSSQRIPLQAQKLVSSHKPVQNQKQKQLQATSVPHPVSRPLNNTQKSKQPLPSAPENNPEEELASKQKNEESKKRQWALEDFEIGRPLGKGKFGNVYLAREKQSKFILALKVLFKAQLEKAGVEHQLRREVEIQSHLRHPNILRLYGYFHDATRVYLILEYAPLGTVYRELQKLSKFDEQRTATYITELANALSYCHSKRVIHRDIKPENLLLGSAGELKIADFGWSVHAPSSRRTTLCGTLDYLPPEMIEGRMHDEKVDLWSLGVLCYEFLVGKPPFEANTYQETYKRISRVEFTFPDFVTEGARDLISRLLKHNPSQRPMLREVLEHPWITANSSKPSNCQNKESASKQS

[4] = molecular target: High affinity nerve growth factor receptor (Homo sapiens, UniProt P04629); type: functional;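 also: NTRK1 tested as one member of a kinome-wide profiling panel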
High affinity nerve growth factor receptor, sequence (P04629 whole entry): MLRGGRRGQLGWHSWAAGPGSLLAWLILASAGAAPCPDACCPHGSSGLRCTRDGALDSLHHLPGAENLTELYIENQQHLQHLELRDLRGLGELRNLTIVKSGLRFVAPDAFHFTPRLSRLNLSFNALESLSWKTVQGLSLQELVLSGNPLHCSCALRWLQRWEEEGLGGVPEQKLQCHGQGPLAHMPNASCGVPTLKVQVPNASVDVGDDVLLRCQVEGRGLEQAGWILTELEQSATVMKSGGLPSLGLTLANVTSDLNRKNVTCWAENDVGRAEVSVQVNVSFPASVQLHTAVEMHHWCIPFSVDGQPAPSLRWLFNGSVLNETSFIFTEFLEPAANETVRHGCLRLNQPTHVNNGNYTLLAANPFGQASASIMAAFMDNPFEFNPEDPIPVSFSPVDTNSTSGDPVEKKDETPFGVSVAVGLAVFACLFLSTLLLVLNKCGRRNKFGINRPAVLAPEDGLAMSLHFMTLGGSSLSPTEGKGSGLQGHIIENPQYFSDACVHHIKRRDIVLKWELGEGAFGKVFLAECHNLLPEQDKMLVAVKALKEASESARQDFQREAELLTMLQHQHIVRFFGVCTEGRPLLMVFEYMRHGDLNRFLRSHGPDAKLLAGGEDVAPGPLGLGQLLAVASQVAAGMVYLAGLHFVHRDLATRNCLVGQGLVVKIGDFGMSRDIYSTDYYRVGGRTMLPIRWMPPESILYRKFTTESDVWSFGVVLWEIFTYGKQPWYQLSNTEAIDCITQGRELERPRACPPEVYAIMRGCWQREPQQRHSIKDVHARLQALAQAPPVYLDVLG

[5] = molecular target: ALK tyrosine kinase receptor (Homo sapiens, UniProt Q9UM73); type: functional;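 also: ALK tested as one member of a kinase panel screen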
ALK tyrosine kinase receptor, sequence (Q9UM73 whole entry): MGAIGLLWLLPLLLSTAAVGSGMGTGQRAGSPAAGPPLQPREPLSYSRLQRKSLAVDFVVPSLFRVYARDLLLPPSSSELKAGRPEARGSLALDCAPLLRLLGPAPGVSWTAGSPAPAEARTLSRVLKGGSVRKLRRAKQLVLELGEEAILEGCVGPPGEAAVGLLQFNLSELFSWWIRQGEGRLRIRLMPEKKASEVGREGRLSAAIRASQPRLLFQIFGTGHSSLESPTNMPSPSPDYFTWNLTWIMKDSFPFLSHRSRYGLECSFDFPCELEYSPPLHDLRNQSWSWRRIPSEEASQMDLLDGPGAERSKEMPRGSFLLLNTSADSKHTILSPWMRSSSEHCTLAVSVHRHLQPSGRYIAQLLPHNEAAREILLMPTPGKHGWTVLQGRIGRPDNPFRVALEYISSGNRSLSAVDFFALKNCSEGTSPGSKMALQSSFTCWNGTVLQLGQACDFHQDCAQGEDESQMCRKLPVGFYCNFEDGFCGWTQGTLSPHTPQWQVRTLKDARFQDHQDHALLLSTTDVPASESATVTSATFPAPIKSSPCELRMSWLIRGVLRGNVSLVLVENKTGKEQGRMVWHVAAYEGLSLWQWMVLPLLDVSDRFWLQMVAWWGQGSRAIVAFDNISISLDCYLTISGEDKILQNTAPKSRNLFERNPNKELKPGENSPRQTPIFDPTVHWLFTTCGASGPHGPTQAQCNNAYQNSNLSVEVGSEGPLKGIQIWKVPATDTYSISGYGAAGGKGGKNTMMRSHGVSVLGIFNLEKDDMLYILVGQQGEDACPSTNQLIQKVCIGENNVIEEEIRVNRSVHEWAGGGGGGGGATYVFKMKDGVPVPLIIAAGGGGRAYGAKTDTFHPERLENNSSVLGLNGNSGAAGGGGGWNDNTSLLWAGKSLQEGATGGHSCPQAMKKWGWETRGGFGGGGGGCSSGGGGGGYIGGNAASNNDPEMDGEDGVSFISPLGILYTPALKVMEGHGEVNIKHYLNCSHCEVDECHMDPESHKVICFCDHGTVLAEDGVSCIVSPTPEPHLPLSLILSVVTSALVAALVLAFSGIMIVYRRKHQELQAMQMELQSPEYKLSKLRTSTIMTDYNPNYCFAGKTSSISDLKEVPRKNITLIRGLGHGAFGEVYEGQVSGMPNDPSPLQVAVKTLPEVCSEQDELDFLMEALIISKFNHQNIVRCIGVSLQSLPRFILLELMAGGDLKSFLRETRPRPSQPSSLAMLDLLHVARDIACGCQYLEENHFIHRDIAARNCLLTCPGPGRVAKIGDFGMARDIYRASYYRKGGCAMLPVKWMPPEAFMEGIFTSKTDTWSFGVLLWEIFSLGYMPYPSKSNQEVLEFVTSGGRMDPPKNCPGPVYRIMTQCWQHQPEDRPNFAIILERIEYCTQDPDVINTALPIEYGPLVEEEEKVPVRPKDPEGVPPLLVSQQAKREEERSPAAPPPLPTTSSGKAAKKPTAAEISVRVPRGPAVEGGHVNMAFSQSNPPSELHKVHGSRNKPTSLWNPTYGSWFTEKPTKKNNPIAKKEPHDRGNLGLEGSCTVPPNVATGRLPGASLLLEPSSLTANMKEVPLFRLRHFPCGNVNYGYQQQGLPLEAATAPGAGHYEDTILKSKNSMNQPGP

[6] = molecular target: Mitogen-activated protein kinase 9 (Homo sapiens, UniProt P45984); type: functional;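 also: value from a kinome panel profiling assay, MAPK9 panel entry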
Mitogen-activated protein kinase 9, sequence (P45984 whole entry): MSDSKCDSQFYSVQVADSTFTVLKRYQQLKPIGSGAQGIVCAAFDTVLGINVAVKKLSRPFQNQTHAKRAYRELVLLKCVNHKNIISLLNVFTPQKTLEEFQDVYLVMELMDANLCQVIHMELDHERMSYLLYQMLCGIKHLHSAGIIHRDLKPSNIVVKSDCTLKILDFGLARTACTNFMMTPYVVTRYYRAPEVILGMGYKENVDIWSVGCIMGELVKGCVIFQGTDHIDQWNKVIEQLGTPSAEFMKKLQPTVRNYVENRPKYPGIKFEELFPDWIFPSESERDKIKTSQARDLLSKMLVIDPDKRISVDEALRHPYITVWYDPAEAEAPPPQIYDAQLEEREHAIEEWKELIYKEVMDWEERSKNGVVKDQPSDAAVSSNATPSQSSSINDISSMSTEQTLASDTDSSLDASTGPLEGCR

[7] = Fluorescence polarization-based biochemical high throughput dose response assay for activators of the Protein Kinase A-R2B (PKA-R2B) complex. [Related pubchem assays (depositor defined):AID504700, AID504704, AID504796, AID504797]
[8] = molecular target: Beta-galactosidase (Escherichia coli, UniProt Q8VNN2); assay: detection-enzyme interference by beta-gal modulators – biochemical, E. coli enzyme, set 3, artefact control for CCR6 antagonist project, dose response (AID 504712); type: functional
Beta-galactosidase, sequence (Q8VNN2 whole entry): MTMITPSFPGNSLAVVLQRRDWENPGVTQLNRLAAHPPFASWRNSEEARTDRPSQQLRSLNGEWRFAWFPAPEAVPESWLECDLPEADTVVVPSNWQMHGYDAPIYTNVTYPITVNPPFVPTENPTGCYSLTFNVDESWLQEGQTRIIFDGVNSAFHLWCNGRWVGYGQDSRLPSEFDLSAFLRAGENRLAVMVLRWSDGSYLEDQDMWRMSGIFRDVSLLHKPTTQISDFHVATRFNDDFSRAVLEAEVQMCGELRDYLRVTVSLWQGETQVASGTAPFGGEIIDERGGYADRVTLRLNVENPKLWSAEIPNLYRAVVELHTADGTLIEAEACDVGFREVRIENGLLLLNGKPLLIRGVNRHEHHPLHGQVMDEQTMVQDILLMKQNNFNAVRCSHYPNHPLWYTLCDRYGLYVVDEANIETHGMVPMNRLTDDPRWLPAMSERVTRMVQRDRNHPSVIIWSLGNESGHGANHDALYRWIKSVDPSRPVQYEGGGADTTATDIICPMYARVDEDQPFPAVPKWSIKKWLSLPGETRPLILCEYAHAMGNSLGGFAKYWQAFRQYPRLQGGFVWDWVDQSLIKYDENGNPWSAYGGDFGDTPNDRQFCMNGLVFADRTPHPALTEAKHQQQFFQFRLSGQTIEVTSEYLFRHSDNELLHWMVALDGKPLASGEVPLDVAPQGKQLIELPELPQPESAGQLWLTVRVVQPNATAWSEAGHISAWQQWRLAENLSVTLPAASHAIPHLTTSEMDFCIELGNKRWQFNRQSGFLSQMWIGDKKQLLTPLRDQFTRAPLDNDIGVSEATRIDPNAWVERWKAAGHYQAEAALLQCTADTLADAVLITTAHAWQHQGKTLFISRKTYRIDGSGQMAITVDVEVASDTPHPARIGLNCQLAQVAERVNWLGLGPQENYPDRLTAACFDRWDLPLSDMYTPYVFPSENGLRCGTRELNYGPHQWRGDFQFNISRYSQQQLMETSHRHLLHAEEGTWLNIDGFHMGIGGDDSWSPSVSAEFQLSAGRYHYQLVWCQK

| IC50 [1] | Ki [3] | Ki [4] | Ki [5] | Ki [6] | SMILES | AC50 [2] | EC50 [7] | IC50 [8] |
| --- | --- | --- | --- | --- | --- | --- | --- | --- |
| 1.81 µM (active) | – | – | – | – | O=C(NNc1cc(N2CCCC2)nc(N2CCCC2)n1)c1ccc([N+](=O)[O-])cc1 | 13.7 µM (active) | – | – |
| – | 398 nM (active) | 316 nM (active) | 2.51 µM (active) | 3.16 µM (active) | O=C(Cc1cccs1)Nc1nc2ccccc2s1 | – | – | – |
| – | – | – | – | – | O=S(=O)(O)c1cccc2c(N=Nc3ccc(O)c4ncccc34)cccc12 | 7.57 µM (active) | > 114 µM (inactive) | 46.3 µM (inactive) |
